Like-named read-outs stand apart in the source and are kept apart here. One block for each compound: values may come before it.
Key:
[1] = target: T1, acyl-CoA synthetase long-chain family member 3 (ACSL3) (Homo sapiens, UniProt O95573); assay: microscale thermophoresis; assay type: binding
[2] = target: T1, acyl-CoA synthetase long-chain family member 3 (ACSL3); assay: microscale thermophoresis; assay type: binding; remark: listed apart in the source
[3] = target: T1, acyl-CoA synthetase long-chain family member 3 (ACSL3); assay: LC-MS of OA-CoA formed by recombinant ACSL3; assay type: biochemical
[4] = target: T1, acyl-CoA synthetase long-chain family member 3 (ACSL3); assay: microscale thermophoresis; assay type: binding; remark: listed apart in the source

T1 sequence (O95573 whole entry): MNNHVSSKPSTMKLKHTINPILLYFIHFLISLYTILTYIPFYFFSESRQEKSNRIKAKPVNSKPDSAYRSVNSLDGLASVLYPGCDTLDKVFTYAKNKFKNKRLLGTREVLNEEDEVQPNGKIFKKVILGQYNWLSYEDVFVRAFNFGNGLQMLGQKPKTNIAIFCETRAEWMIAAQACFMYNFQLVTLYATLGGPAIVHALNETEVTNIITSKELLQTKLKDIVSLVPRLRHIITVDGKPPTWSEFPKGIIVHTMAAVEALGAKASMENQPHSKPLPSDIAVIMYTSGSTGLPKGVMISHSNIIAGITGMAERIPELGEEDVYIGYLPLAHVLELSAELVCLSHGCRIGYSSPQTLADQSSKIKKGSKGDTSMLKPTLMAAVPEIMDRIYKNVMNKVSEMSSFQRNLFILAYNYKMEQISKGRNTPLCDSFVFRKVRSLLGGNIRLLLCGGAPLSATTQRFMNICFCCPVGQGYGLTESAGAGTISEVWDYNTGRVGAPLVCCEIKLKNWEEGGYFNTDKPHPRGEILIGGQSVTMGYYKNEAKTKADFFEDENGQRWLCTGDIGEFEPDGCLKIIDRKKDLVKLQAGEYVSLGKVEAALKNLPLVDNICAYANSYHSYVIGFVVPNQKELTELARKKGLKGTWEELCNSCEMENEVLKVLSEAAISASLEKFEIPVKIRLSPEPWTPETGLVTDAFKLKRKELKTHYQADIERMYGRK

- Kd [1]: 1.28 µM
Compound: CNC(=O)/C=C(C)/C=C/C=C(C)/C=C/C1=C(C)CCCC1(C)C [D3, (2E,4E,6E,8E)-N,3,7-trimethyl-9-(2,6,6-trimethylcyclohex-1-en-1-yl)nona-2,4,6,8-tetraenamide]

- Kd [2]: 12.8 µM
Compound: CC1=C(/C=C/C(C)=C/C=C/C(C)=C/C(=O)O)C(C)(C)CCC1 [ATRA, all-trans retinoic acid]

Compound: CCCCCCCC/C=C\CCCCCCCC(=O)O [OA, oleic acid]
- LC-MS of OA-CoA formed by recombinant ACSL3 [3]: VA analogues promoted acylation reaction with OA as substrate in the presence of ACSL3

- Kd [4]: 1.85 µM
Compound: CC1=C(/C=C/C(C)=C/C=C/C(C)=C/CO)C(C)(C)CCC1 [VA, vitamin A]

— article PMC13031062 (Acta Pharmaceutica Sinica. B, 2025)
